Measurements reported in ChEMBL document CHEMBL1135136, “Carbonic anhydrase inhibitors. Preparation of potent sulfonamides inhibitors incorporating bile acid tails” (Bioorg Med Chem Lett, 2002).

How the values were obtained:
Carbonic anhydrase 4 = biological target: T1, Carbonic anhydrase 4 (Bos taurus, UniProt Q95323)
T1 sequence (Q95323 whole entry): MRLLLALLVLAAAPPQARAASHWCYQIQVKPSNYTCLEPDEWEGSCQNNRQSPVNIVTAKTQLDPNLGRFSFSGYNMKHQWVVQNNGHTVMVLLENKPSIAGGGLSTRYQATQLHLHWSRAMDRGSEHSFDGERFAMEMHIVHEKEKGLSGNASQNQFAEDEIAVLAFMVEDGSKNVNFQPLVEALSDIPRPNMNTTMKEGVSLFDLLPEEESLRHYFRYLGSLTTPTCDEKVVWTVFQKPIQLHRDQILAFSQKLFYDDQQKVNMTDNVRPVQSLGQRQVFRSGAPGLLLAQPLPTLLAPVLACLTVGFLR
Description: Inhibitory activity against bovine carbonic anhydrase IV (CA4), obtained from bovine lung microsomes

Carbonic anhydrase 2 = Carbonic anhydrase 2 (Homo sapiens, UniProt P00918)
Description: Inhibitory activity against human recombinant carbonic anhydrase II (CA2)

Carbonic anhydrase 1 = Carbonic anhydrase 1 (Homo sapiens, UniProt P00915)
Chain of Carbonic anhydrase 1 (P00915 whole entry): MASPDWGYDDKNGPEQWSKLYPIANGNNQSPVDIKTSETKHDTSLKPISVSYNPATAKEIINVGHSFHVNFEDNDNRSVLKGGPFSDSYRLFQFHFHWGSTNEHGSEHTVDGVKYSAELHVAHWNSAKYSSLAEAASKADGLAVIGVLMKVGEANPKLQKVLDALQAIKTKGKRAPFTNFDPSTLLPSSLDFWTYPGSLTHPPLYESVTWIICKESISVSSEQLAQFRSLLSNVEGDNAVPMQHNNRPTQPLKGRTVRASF
Description: Inhibitory activity against human recombinant carbonic anhydrase I (CA1)

| SMILES | Ki (Carbonic anhydrase 4) | Ki (Carbonic anhydrase 2) | Ki (Carbonic anhydrase 1) |
| --- | --- | --- | --- |
| C[C@H](CCC(=O)OCc1ccc(S(N)(=O)=O)cc1)[C@H]1CC[C@H]2[C@@H]3[C@H](O)C[C@@H]4C[C@H](O)CC[C@]4(C)[C@H]3C[C@H](O)[C@]12C | 280 nM | 97 nM | 1200 nM |
| C[C@H](CCC(=O)Nc1ccc2nc(S(N)(=O)=O)sc2c1)[C@H]1CC[C@H]2[C@@H]3CC[C@@H]4C[C@H](O)CC[C@]4(C)[C@H]3CC[C@]12C | 9 nM | 2.8 nM | 48 nM |
| C[C@H](CCC(=O)Oc1ccc2nc(S(N)(=O)=O)sc2c1)[C@H]1CC[C@H]2[C@@H]3[C@H](O)C[C@@H]4C[C@H](O)CC[C@]4(C)[C@H]3CC[C@]12C | 12 nM | 6.1 nM | 47 nM |
| C[C@H](CCC(=O)Nc1ccccc1S(N)(=O)=O)[C@H]1CC[C@H]2[C@@H]3[C@@H](O)C[C@@H]4C[C@H](O)CC[C@]4(C)[C@H]3CC[C@]12C | 500 nM | 180 nM | 8400 nM |
| C[C@H](CCC(=O)Nc1cc(Cl)c(S(N)(=O)=O)cc1S(N)(=O)=O)[C@H]1CC[C@H]2[C@@H]3[C@H](O)C[C@@H]4C[C@H](O)CC[C@]4(C)[C@H]3CC[C@]12C | 143 nM | 62 nM | 300 nM |
| C[C@H](CCC(=O)Nc1ccc(S(N)(=O)=O)cc1)[C@H]1CC[C@H]2[C@@H]3[C@H](O)C[C@@H]4C[C@H](O)CC[C@]4(C)[C@H]3CC[C@]12C | 420 nM | 186 nM | 20000 nM |
| C[C@H](CCC(=O)Nc1ccc(S(N)(=O)=O)cc1I)[C@H]1CC[C@H]2[C@@H]3CC[C@@H]4C[C@H](O)CC[C@]4(C)[C@H]3CC[C@]12C | 69 nM | 32 nM | 120 nM |
| C[C@H](CCC(=O)OCc1ccc(S(N)(=O)=O)cc1)[C@H]1CC[C@H]2[C@@H]3[C@@H](O)C[C@@H]4C[C@H](O)CC[C@]4(C)[C@H]3CC[C@]12C | 245 nM | 75 nM | 500 nM |
| C[C@H](CCC(=O)Nc1ccc(S(N)(=O)=O)cc1Br)[C@H]1CC[C@H]2[C@@H]3CC[C@@H]4C[C@H](O)CC[C@]4(C)[C@H]3CC[C@]12C | 53 nM | 21 nM | 120 nM |
| C[C@H](CCC(=O)Nc1c(S(N)(=O)=O)cc(S(N)(=O)=O)c(Cl)c1Cl)[C@H]1CC[C@H]2[C@@H]3C(=O)C[C@@H]4CC(=O)CC[C@]4(C)[C@H]3CC(=O)[C@]12C | 24 nM | 9 nM | 45 nM |
| C[C@H](CCC(=O)NCc1ccc(S(N)(=O)=O)cc1)[C@H]1CC[C@H]2[C@@H]3[C@@H](O)C[C@@H]4C[C@H](O)CC[C@]4(C)[C@H]3CC[C@]12C | 40 nM | 21 nM | 550 nM |
| C[C@H](CCC(=O)NCCc1ccc(S(N)(=O)=O)cc1)[C@H]1CC[C@H]2[C@@H]3CC[C@@H]4C[C@H](O)CC[C@]4(C)[C@H]3CC[C@]12C | 70 nM | 41 nM | 650 nM |
| C[C@H](CCC(=O)Nc1cc(Cl)c(S(N)(=O)=O)cc1S(N)(=O)=O)[C@H]1CC[C@H]2[C@@H]3CC[C@@H]4C[C@H](O)CC[C@]4(C)[C@H]3C[C@H](O)[C@]12C | 121 nM | 55 nM | 225 nM |
| C[C@H](CCC(=O)OCCc1ccc(S(N)(=O)=O)cc1)[C@H]1CC[C@H]2[C@@H]3[C@H](O)C[C@@H]4C[C@H](O)CC[C@]4(C)[C@H]3C[C@H](O)[C@]12C | 300 nM | 80 nM | 1150 nM |
| C[C@H](CCC(=O)NCCC(=O)Nc1nnc(S(N)(=O)=O)s1)[C@H]1CC[C@H]2[C@@H]3[C@H](O)C[C@@H]4C[C@H](O)CC[C@]4(C)[C@H]3CC[C@]12C | 45 nM | 2 nM | 268 nM |
| C[C@H](CCC(=O)Nc1ccc(S(N)(=O)=O)cc1)[C@H]1CC[C@H]2[C@@H]3CC[C@@H]4C[C@H](O)CC[C@]4(C)[C@H]3C[C@H](O)[C@]12C | 355 nM | 210 nM | 12000 nM |
| C[C@H](CCC(=O)NCCc1ccc(S(N)(=O)=O)cc1)[C@H]1CC[C@H]2[C@@H]3CC[C@@H]4C[C@H](O)CC[C@]4(C)[C@H]3C[C@H](O)[C@]12C | 245 nM | 77 nM | 1500 nM |
| C[C@H](CCC(=O)Nc1cccc(S(N)(=O)=O)c1)[C@H]1CC[C@H]2[C@@H]3[C@H](O)C[C@@H]4C[C@H](O)CC[C@]4(C)[C@H]3CC[C@]12C | 1250 nM | 210 nM | 21400 nM |
| C[C@H](CCC(=O)Nc1cccc(S(N)(=O)=O)c1)[C@H]1CC[C@H]2[C@@H]3CC[C@@H]4C[C@H](O)CC[C@]4(C)[C@H]3C[C@H](O)[C@]12C | 980 nM | 230 nM | 12700 nM |

| SMILES | Ki (Carbonic anhydrase 4) | Ki (Carbonic anhydrase 2) | Ki (Carbonic anhydrase 1) |
| --- | --- | --- | --- |
| C[C@H](CCC(=O)Nc1cc(Cl)c(S(N)(=O)=O)cc1S(N)(=O)=O)[C@H]1CC[C@H]2[C@@H]3CC[C@@H]4C[C@H](O)CC[C@]4(C)[C@H]3CC[C@]12C | 82 nM | 54 nM | 200 nM |
| C[C@H](CCC(=O)Nc1c(S(N)(=O)=O)cc(S(N)(=O)=O)c(Cl)c1Cl)[C@H]1CC[C@H]2[C@@H]3[C@H](O)C[C@@H]4C[C@H](O)CC[C@]4(C)[C@H]3C[C@H](O)[C@]12C | 97 nM | 21 nM | 400 nM |
| C[C@H](CCC(=O)Nc1ccc(S(N)(=O)=O)cc1)[C@H]1CC[C@H]2[C@@H]3[C@@H](O)C[C@@H]4C[C@H](O)CC[C@]4(C)[C@H]3CC[C@]12C | 164 nM | 71 nM | 4000 nM |
| C[C@H](CCC(=O)Oc1ccc2nc(S(N)(=O)=O)sc2c1)[C@H]1CC[C@H]2[C@@H]3CC[C@@H]4C[C@H](O)CC[C@]4(C)[C@H]3CC[C@]12C | 9 nM | 2 nM | 40 nM |
| C[C@H](CCC(=O)Oc1ccc2nc(S(N)(=O)=O)sc2c1)[C@H]1CC[C@H]2[C@@H]3[C@H](O)C[C@@H]4C[C@H](O)CC[C@]4(C)[C@H]3C[C@H](O)[C@]12C | 9 nM | 4 nM | 32 nM |
| C[C@H](CCC(=O)NCc1ccc(S(N)(=O)=O)cc1)[C@H]1CC[C@H]2[C@@H]3CC[C@@H]4C[C@H](O)CC[C@]4(C)[C@H]3CC[C@]12C | 83 nM | 48 nM | 910 nM |
| C[C@H](CCC(=O)Nc1cccc(S(N)(=O)=O)c1)[C@H]1CC[C@H]2[C@@H]3[C@@H](O)C[C@@H]4C[C@H](O)CC[C@]4(C)[C@H]3CC[C@]12C | 480 nM | 157 nM | 7050 nM |
| C[C@H](CCC(=O)Nc1ccc(S(N)(=O)=O)cc1Cl)[C@H]1CC[C@H]2[C@@H]3[C@H](O)C[C@@H]4C[C@H](O)CC[C@]4(C)[C@H]3CC[C@]12C | 150 nM | 80 nM | 950 nM |
| C[C@H](CCC(=O)NNc1ccc(S(N)(=O)=O)cc1)[C@H]1CC[C@H]2[C@@H]3[C@H](O)C[C@@H]4C[C@H](O)CC[C@]4(C)[C@H]3CC[C@]12C | 850 nM | 295 nM | 27500 nM |
| C[C@H](CCC(=O)OCCc1ccc(S(N)(=O)=O)cc1)[C@H]1CC[C@H]2[C@@H]3[C@H](O)C[C@@H]4C[C@H](O)CC[C@]4(C)[C@H]3CC[C@]12C | 320 nM | 90 nM | 1100 nM |
| C[C@H](CCC(=O)NCc1ccc(S(N)(=O)=O)cc1)[C@H]1CC[C@H]2[C@@H]3[C@H](O)C[C@@H]4C[C@H](O)CC[C@]4(C)[C@H]3C[C@H](O)[C@]12C | 254 nM | 120 nM | 3780 nM |
| C[C@H](CCC(=O)NCCc1ccc(S(N)(=O)=O)cc1)[C@H]1CC[C@H]2[C@@H]3[C@@H](O)C[C@@H]4C[C@H](O)CC[C@]4(C)[C@H]3CC[C@]12C | 34 nM | 14 nM | 295 nM |
| C[C@H](CCC(=O)Nc1cccc(S(N)(=O)=O)c1)[C@H]1CC[C@H]2[C@@H]3CC[C@@H]4C[C@H](O)CC[C@]4(C)[C@H]3CC[C@]12C | 740 nM | 210 nM | 9500 nM |
| C[C@H](CCC(=O)Nc1ccc(S(N)(=O)=O)cc1)[C@H]1CC[C@H]2[C@@H]3C(=O)C[C@@H]4CC(=O)CC[C@]4(C)[C@H]3CC(=O)[C@]12C | 147 nM | 70 nM | 3700 nM |
| C[C@H](CCC(=O)Nc1ccc(S(N)(=O)=O)cc1I)[C@H]1CC[C@H]2[C@@H]3C(=O)C[C@@H]4CC(=O)CC[C@]4(C)[C@H]3CC(=O)[C@]12C | 19 nM | 10 nM | 61 nM |
| C[C@H](CCC(=O)Nc1ccc(S(N)(=O)=O)cc1)[C@H]1CC[C@H]2[C@@H]3[C@H](O)C[C@@H]4C[C@H](O)CC[C@]4(C)[C@H]3C[C@H](O)[C@]12C | 430 nM | 210 nM | 21000 nM |
| C[C@H](CCC(=O)Nc1ccc(S(N)(=O)=O)cc1Cl)[C@H]1CC[C@H]2[C@@H]3CC[C@@H]4C[C@H](O)CC[C@]4(C)[C@H]3CC[C@]12C | 54 nM | 47 nM | 720 nM |
| C[C@H](CCC(=O)Nc1ccc(S(N)(=O)=O)cc1F)[C@H]1CC[C@H]2[C@@H]3[C@@H](O)C[C@@H]4C[C@H](O)CC[C@]4(C)[C@H]3CC[C@]12C | 24 nM | 11 nM | 180 nM |
